Measured values: US4656158A, “Peptide, and production and use thereof” (Suntory Limited, priority 1984, dated 1987)

What was measured:
[1] = repeated administration: immunogenicity and toxicity; format: in vivo
[2] = solubility in solvents; format: physicochemical

**Q.** Which toxicity ([1]; gradually hydrolized in a body to L-amino acids) does the source give for `CC[C@H](C)[C@@H]1NC(=O)[C@H](CCCNC(=N)N)NC(=O)[C@H](CC(=O)O)NC(=O)[C@H](CCSC)NC(=O)[C@H](CCCNC(=N)N)NC(=O)CNC(=O)CNC(=O)[C@H](Cc2ccccc2)NC(=O)[C@@H](NC(=O)[C@H](CO)NC(=O)[C@H](CO)NC(=O)[C@H](CCCNC(=N)N)NC(=O)[C@H](CCCNC(=N)N)NC(=O)[C@H](CC(C)C)NC(=O)[C@@H](N)CO)CSSC[C@@H](C(=O)N[C@@H](CC(N)=O)C(=O)N[C@@H](CO)C(=O)N[C@@H](Cc2ccccc2)C(=O)N[C@@H](CCCNC(=N)N)C(=O)N[C@@H](Cc2ccc(O)cc2)C(=O)O)NC(=O)CNC(=O)[C@H](CC(C)C)NC(=O)CNC(=O)[C@H](CO)NC(=O)[C@H](CCC(N)=O)NC(=O)[C@H](C)NC(=O)CNC(=O)[C@H]([C@@H](C)CC)NC(=O)[C@H](CCCNC(=N)N)NC(=O)[C@H](CC(=O)O)NC(=O)[C@H](CCSC)NC(=O)[C@H](CCCNC(=N)N)NC(=O)CNC(=O)CNC(=O)[C@H](Cc2ccccc2)NC(=O)[C@@H](NC(=O)[C@H](CO)NC(=O)[C@H](CO)NC(=O)[C@H](CCCNC(=N)N)NC(=O)[C@H](CCCNC(=N)N)NC(=O)[C@H](CC(C)C)NC(=O)[C@@H](N)CO)CSSC[C@@H](C(=O)N[C@@H](CC(N)=O)C(=O)N[C@@H](CO)C(=O)N[C@@H](Cc2ccccc2)C(=O)N[C@@H](CCCNC(=N)N)C(=O)N[C@@H](Cc2ccc(O)cc2)C(=O)O)NC(=O)CNC(=O)[C@H](CC(C)C)NC(=O)CNC(=O)[C@H](CO)NC(=O)[C@H](CCC(N)=O)NC(=O)[C@H](C)NC(=O)CNC1=O` [β-hANP, β-human atrial natriuretic polypeptide] here?
**A.** little toxicity

**Q.** And the anaphylaxis shock ([1]; repeated administration)?
**A.** does not cause anaphylaxis shock

**Q.** And the production of antibodies ([1]; repeated administration)?
**A.** does not stimulate production of antibodies

**Q.** What about the “solubility in organic solvents” value ([2]; ethyl acetate, butyl acetate, ethyl ether, hexane, petroleum ether, benzene, chloroform) of the same compound?
**A.** insoluble

**Q.** And the “solubility in methanol and acetic acid” value ([2]; methanol, acetic acid)?
**A.** partially

**Q.** And the solubility in water ([2]; water)?
**A.** soluble
